Laboratory results reported in publication PMC11546786, “Designing Analogs of SAAP-148 with Enhanced Antimicrobial and Anti-LPS Activities” (International Journal of Molecular Sciences, 2024).
Ends that are not written are not given here.

Test system: S. aureus
Assay: Membrane damage, PI staining and flow cytometry
Assay type: cell-based, Staphylococcus aureus
Settings: 6.25 μM peptide, 30 min
Method: Propidium iodide (PI) was utilized as a marker for assessing the structural integrity of cell membranes and the occurrence of cell death. The impact of peptides on BEAS-2B cells, E. coli, and S. aureus was investigated by treating the cells with peptides followed by PI staining and flow cytometry (FACS) analysis to evaluate peptide-induced membrane damage. Table 5 presents the results of PI staining in BEAS-2B cells (1 × 10^6) following treatment with peptides at a concentration of 6.25 μM. […] FACS analysis at a peptide concentration of 6.25 μM was employed to determine the membrane damage caused by peptides in E. coli and S. aureus cells (Table 5).
Peptide-induced membrane damage was evaluated by quantifying the influx of propidium iodide (PI). BEAS-2B cells (1 × 10^6 cells in 50 μL) were exposed to a final concentration of 6.25 μM peptide and incubated at 37 °C for 30 min, followed by PBS washing and re-suspension in PI solution (dissolved in PBS) at a final concentration of 2 μg/mL. Bacteria were cultured to mid-log phase at 37 °C, then diluted to an OD600 of 0.5 in phosphate-buffered saline (PBS). […] The bacteria were harvested and re-suspended in PI solution, with fluorescence signal analysis conducted using flow cytometry (Cytomics FC 500, Beckman Coulter, Indianapolis, IN, USA).

LKRVWKRVFKLKKRYWRQLKKPVR-NH2 [SAAP-7]
percentage of PI-positive cells, S. aureus: 21.1%
